Results on 36 compounds are retold here after the supplement of paper PMC8967900.

What all share (assay): selective drug sensitivity score (sDSS, relative to normal bone marrow) (sDSS (score)); higher = more potent and effective on the cell line relative to normal bone marrow cells
Conditions in all cases: 72 h

The test system of experiment [1] is MOLT-4.
The subject of experiment [2] is NALM-16.
Experiment [3] concerns SUP-B15.
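Further: ALL cell lines in 384-well plates, five doses spanning 10,000-fold, each plate scaled between vehicle and 100 µmol/L benzalkonium chloride controls, sDSS an adapted area-under-curve metric.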

In the case of `CCn1cc(-c2ccnc3[nH]c(-c4cccc(CN(C)C)c4)cc23)c(-c2ccc(NC(=O)N(C)C)cc2)n1` (top concentration 1000 nM), the “selective drug sensitivity score” value in experiment [1] was 13.1; in experiment [2], -1.84; in experiment [3], 23.9.

For `CC(C)(C)C[C@@H]1N[C@@H](C(=O)N[C@H]2CC[C@H](O)CC2)[C@H](c2cccc(Cl)c2F)[C@]12C(=O)Nc1cc(Cl)ccc12` (top concentration 10000 nM), the “selective drug sensitivity score” value was 12.9 in experiment [1], -3.54 in experiment [2] and 20.4 in experiment [3].

As for `Cc1c(Cn2c(C)nc3c(C(=O)O)cc(N4CCOCC4)cc32)cccc1C(F)(F)F` (top concentration 10000 nM), the “selective drug sensitivity score” value in experiment [1] was -0.02; in experiment [2], -0.02; in experiment [3] it was 0.38.

For the compound `Nc1ncnc2c1c(COc1cccc(Cl)c1)nn2C1CCOCC1` (top concentration 10000 nM), the figures for the “selective drug sensitivity score” value in experiment [1], in experiment [2] and in experiment [3] were 0.16, -0.64 and 0.16, respectively.

As for `Cn1cc(C[C@@H](N)C(=O)O)c2ccccc21` [1-methyl-D-tryptophan] (top concentration 5000 nM), the “selective drug sensitivity score” value in experiment [1], in experiment [2] and in experiment [3] was -0.62 each time.

Consider `COc1cc2c(cc1OCCCN1CCCC1)N=C(N)C21CCC1` [A-366] (top concentration 25000 nM), for which the “selective drug sensitivity score” value in experiment [1] is 1.36; in experiment [2] it was -1.84; in experiment [3], -1.14.

For `COCCOc1cnc2ccn([C@H](C)c3nnc4c(F)cc(-c5cnn(C)c5)cn34)c(=O)c2c1` [AMG-337] (top concentration 10000 nM), the “selective drug sensitivity score” value in experiment [1], in experiment [2] and in experiment [3] was -0.06 each time.

On to `COc1cc(N2CCC(N3CCN(C)CC3)CC2)ccc1Nc1ncnc(Nc2ccccc2S(=O)(=O)C(C)C)n1` [ASP3026] (top concentration 10000 nM), for which the figures for the “selective drug sensitivity score” value in experiment [1], in experiment [2] and in experiment [3] were -0.14, -2.64 and 1.16, respectively.

Take `CN[C@@H](C)C(=O)N[C@H]1CN(C(=O)CC(C)C)CC[C@H]2CC[C@@H](C(=O)NC(c3ccccc3)c3ccccc3)N2C1=O` [AT-406] (top concentration 10000 nM): the “selective drug sensitivity score” value in experiment [1], in experiment [2] and in experiment [3] was -1.26 throughout.

Regarding `COc1cc2ncnc(Nc3cccc(Cl)c3F)c2cc1OC(=O)N1CCN(C)C[C@H]1C` [AZD3759] (top concentration 1000 nM), the “selective drug sensitivity score” value in experiment [1], in experiment [2] and in experiment [3] was -0.04 each time.

Regarding `C[C@]12CC[C@H](O)CC1=CC[C@@H]1[C@@H]2CC[C@]2(C)C(c3cccnc3)=CC[C@@H]12` [Abiraterone] (top concentration 5000 nM), the “selective drug sensitivity score” value is -0.12 in experiment [1], -0.12 in experiment [2] and -0.02 in experiment [3].

`CC#CC(=O)N1CCC[C@H]1c1nc(-c2ccc(C(=O)Nc3ccccn3)cc2)c2c(N)nccn12` [Acalabrutinib] (top concentration 1000 nM): the “selective drug sensitivity score” value in experiment [1] was -0.1; in experiment [2] it was -0.1; in experiment [3] it was 3.7.

Regarding `CCc1cc2c(cc1N1CCC(N3CCOCC3)CC1)C(C)(C)c1[nH]c3cc(C#N)ccc3c1C2=O` [Alectinib] (top concentration 1000 nM), the “selective drug sensitivity score” value in experiment [1], in experiment [2] and in experiment [3] was -0.22 throughout.

On to `Oc1ncnc2[nH]ncc12` [Allopurinol] (top concentration 10000 nM), for which the “selective drug sensitivity score” value is -0.64 in experiment [1], -0.64 in experiment [2] and 0.36 in experiment [3].

Consider `COc1cc(NS(C)(=O)=O)ccc1Nc1c2ccccc2nc2ccccc12` [Amsacrine] (top concentration 10000 nM), for which the results for the “selective drug sensitivity score” value in experiment [1], in experiment [2] and in experiment [3] were 21.3, 0.66 and 23.6, respectively.

Regarding `O=C1CN2Cc3c(ccc(Cl)c3Cl)N=C2N1` [Anagrelide] (top concentration 10000 nM), the “selective drug sensitivity score” value in experiment [1], in experiment [2] and in experiment [3] was 0 throughout.

Turning to `N#CC(c1ccnc(OCc2ccc(CN3CCOCC3)cc2)n1)c1nc2ccccc2s1` (stereo not drawn) [Bentamapimod] (top concentration 10000 nM), the “selective drug sensitivity score” value was 1.74 in experiment [1], -0.46 in experiment [2] and 2.34 in experiment [3].

Consider `CCNC(=O)CCC/C=C\C[C@@H]1[C@@H](/C=C/[C@@H](O)CCc2ccccc2)[C@H](O)C[C@@H]1O` [Bimatoprost] (top concentration 5500 nM), for which the “selective drug sensitivity score” value in experiment [1], in experiment [2] and in experiment [3] was 0 each time.

In the case of `COc1cc(C)[nH]c(=O)c1CNC(=O)c1c(C)n([C@H](C)C2CCOCC2)c2ccccc12` [CPI-360] (top concentration 10000 nM), the “selective drug sensitivity score” value in experiment [1], in experiment [2] and in experiment [3] was 0 throughout.

`CNC(=O)c1ccc(-c2cnc3ncc(Cc4ccc5ncccc5c4)n3n2)cc1F` [Capmatinib] (top concentration 1000 nM): the “selective drug sensitivity score” value in experiment [1], in experiment [2] and in experiment [3] was -0.06 in each case.

Turning to `COc1cc2c(Oc3ccc4[nH]c(C)cc4c3F)ncnc2cc1OCCCN1CCCC1` [Cediranib] (top concentration 1000 nM), the entries for the “selective drug sensitivity score” value in experiment [1], in experiment [2] and in experiment [3] were 0.1, 0 and 0, respectively.

Turning to `CCN(CC)CCCC(C)Nc1ccnc2cc(Cl)ccc12` (stereo not drawn) [Chloroquine] (top concentration 100000 nM), the “selective drug sensitivity score” value in experiment [1] was -7.24; in experiment [2], -5.24; in experiment [3], -4.14.

On to `C[C@@H](Oc1cc(-c2cnn(C3CCNCC3)c2)cnc1N)c1c(Cl)ccc(F)c1Cl` [Crizotinib] (top concentration 1000 nM), for which the “selective drug sensitivity score” value was -0.54 in experiment [1], -0.54 in experiment [2] and 3.86 in experiment [3].

With `COc1cc2ncnc(Nc3ccc(F)c(Cl)c3)c2cc1NC(=O)/C=C/CN1CCCCC1` [Dacomitinib] (top concentration 1000 nM), the “selective drug sensitivity score” value was -1.54 in experiment [1], -1.54 in experiment [2] and -1.34 in experiment [3].

As for `CCN(CC)CCN(Cc1ccc(-c2ccc(C(F)(F)F)cc2)cc1)C(=O)Cn1c(SCc2ccc(F)cc2)nc(=O)c2c1CCC2` [Darapladib] (top concentration 1000 nM), the “selective drug sensitivity score” value in experiment [1] is -1.42; in experiment [2], -0.52; in experiment [3] it was -1.42.

Turning to `C[C@@H]1C[C@H]2[C@@H]3CCC4=CC(=O)C=C[C@]4(C)[C@@]3(F)[C@@H](O)C[C@]2(C)[C@@]1(O)C(=O)CO` [Dexamethasone] (top concentration 10000 nM), the entries for the “selective drug sensitivity score” value in experiment [1], in experiment [2] and in experiment [3] were 1.48, -1.52 and 43, respectively.

As for `Cc1cc(C)c(CNC(=O)c2cc(-c3ccc(CN4CCOCC4)cc3)cc3c2cnn3C2CCCC2)c(=O)[nH]1` [EPZ-5687] (top concentration 10000 nM), the “selective drug sensitivity score” value in experiment [1], in experiment [2] and in experiment [3] was -0.36 in each case.

Turning to `C=C1C[C@@H]2CC[C@@]34C[C@H]5O[C@H]6[C@@H](O3)[C@H]3O[C@H](CC[C@@H]3O[C@H]6[C@H]5O4)CC(=O)C[C@@H]3[C@@H](OC)[C@@H](C[C@H](O)CN)O[C@H]3C[C@H]3O[C@@H](CC[C@@H]1O2)C[C@@H](C)C3=C` [Eribulin] (top concentration 1000 nM), the “selective drug sensitivity score” value in experiment [1] turned out to be 23.3; in experiment [2], 17.1; in experiment [3], 25.7.

As for `O=c1[nH]cc(F)c(=O)[nH]1` [Fluorouracil] (top concentration 10000 nM), the results for the “selective drug sensitivity score” value in experiment [1], in experiment [2] and in experiment [3] were 2.76, -0.24 and 3.46, respectively.

`CC(C)C(=O)Nc1ccc([N+](=O)[O-])c(C(F)(F)F)c1` [Flutamide] (top concentration 10000 nM): the results for the “selective drug sensitivity score” value in experiment [1], in experiment [2] and in experiment [3] were -0.46, -0.56 and -0.56, respectively.

Take `C[C@]12CC[C@@H]3c4ccc(O)cc4C[C@@H](CCCCCCCCC[S+]([O-])CCCC(F)(F)C(F)(F)F)[C@H]3[C@@H]1CC[C@@H]2O` (stereo partly drawn) [Fulvestrant] (top concentration 1000 nM): the “selective drug sensitivity score” value in experiment [1], in experiment [2] and in experiment [3] was 0 throughout.

For `CCCOc1ccn2c(C(C)=O)cc(-c3ccccc3S(C)(=O)=O)c2c1` [GSK2801] (top concentration 10000 nM), the “selective drug sensitivity score” value in experiment [1] was -0.16; in experiment [2] it was -0.36; in experiment [3] it was -0.36.

For `Cc1cccc(-c2nn3c(c2-c2ccnc4ccc(C(N)=O)cc24)CCC3)n1` [Galunisertib] (top concentration 1000 nM), the “selective drug sensitivity score” value in experiment [1], in experiment [2] and in experiment [3] was 0 in each case.

`O=C(O)CNC(=O)c1c(O)c2ccccc2n(Cc2ccccc2)c1=O` [IOX-2] (top concentration 50000 nM): the “selective drug sensitivity score” value in experiment [1] was -0.82; in experiment [2], -0.62; in experiment [3], -0.82.

In the case of `C#Cc1cccc(Nc2ncnc3cc4c(cc23)OCCOCCOCCO4)c1` [Icotinib] (top concentration 10000 nM), the “selective drug sensitivity score” value was found to be 0.2 in experiment [1], 0 in experiment [2] and 1.2 in experiment [3].

On to `CC(C)Cn1cnc2c(N)nc3ccccc3c21` [Imiquimod] (top concentration 2500 nM), for which the “selective drug sensitivity score” value in experiment [1] is 0; in experiment [2] it was 0; in experiment [3], 0.3.
